In PubChem BioAssay AID248 (DTP/NCI, 2004):
Several values for one entry are separate records, joined by “and”; a condition that tells them apart may be missing. Equal values may be shown once. Toxic doses and inconclusive results are not listed. No stated cut-off is given here; in the data, active means T/C of 150% or more; inactive means T/C below 125%.

Test system: L1210 leukemia ip in BDF1 mice, survival T/C
Test: NCI In Vivo Anticancer Drug Screen. Data for tumor model L1210 Leukemia (intraperitoneal) in B6D2F1 (BDF1) mice
Conditions: endpoint: mean survival time, higher = longer survival
Summary of the method: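 Tumor was transplanted into mice, which were then dosed with test compound or vehicle alone. Survival was recorded for each group, and the treated figure was expressed relative to the control figure.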

[1] = dose: 50.0 mg/kg/injection, schedule: Q01DX009 (ip), vehicle: Klucel (hydroxypropylcellulose) (HPC)
[2] = dose: 100.0 mg/kg/injection, schedule: Q01DX009 (ip), vehicle: Klucel (hydroxypropylcellulose) (HPC)
[3] = dose: 100.0 mg/kg/injection, schedule: Q04DX003 (ip), vehicle: saline
[4] = dose: 200.0 mg/kg/injection, schedule: Q01DX009 (ip), vehicle: Klucel (hydroxypropylcellulose) (HPC)
[5] = dose: 200.0 mg/kg/injection, schedule: Q04DX003 (ip), vehicle: saline
[6] = dose: 100.0 mg/kg/injection, schedule: Q01DX001 (ip), vehicle: saline
[7] = dose: 200.0 mg/kg/injection, schedule: Q01DX001 (ip), vehicle: saline
[8] = dose: 100.0 mg/kg/injection, schedule: Q01DX009 (ip), vehicle: saline with Tween-80
[9] = dose: 100.0 mg/kg/injection, schedule: Q04DX003 (ip), vehicle: saline with Tween-80
[10] = dose: 200.0 mg/kg/injection, schedule: Q01DX009 (ip), vehicle: saline with Tween-80
[11] = dose: 200.0 mg/kg/injection, schedule: Q04DX003 (ip), vehicle: saline with Tween-80
[12] = dose: 400.0 mg/kg/injection, schedule: Q01DX009 (ip), vehicle: Klucel (hydroxypropylcellulose) (HPC)
[13] = dose: 400.0 mg/kg/injection, schedule: Q04DX003 (ip), vehicle: saline
[14] = dose: 100.0 mg/kg/injection, schedule: Q04DX003 (ip), vehicle: Klucel (hydroxypropylcellulose) (HPC)
[15] = dose: 200.0 mg/kg/injection, schedule: Q04DX003 (ip), vehicle: Klucel (hydroxypropylcellulose) (HPC)
[16] = dose: 400.0 mg/kg/injection, schedule: Q04DX003 (ip), vehicle: Klucel (hydroxypropylcellulose) (HPC)
[17] = dose: 400.0 mg/kg/injection, schedule: Q04DX003 (ip), vehicle: saline with Tween-80
[18] = dose: 100.0 mg/kg/injection, schedule: Q01DX009 (ip), vehicle: saline
[19] = dose: 200.0 mg/kg/injection, schedule: Q01DX009 (ip), vehicle: saline
[20] = dose: 400.0 mg/kg/injection, schedule: Q01DX009 (ip), vehicle: saline

Measured: T/C

Cc1ccc(P(=O)(O)O)cc1C
inactive: dose: 37.5 mg/kg/injection, schedule: Q01DX009 (ip), vehicle: saline 101 % of control | [1] 101 % of control | dose: 75.0 mg/kg/injection, schedule: Q01DX009 (ip), vehicle: saline 89 % of control | [2] 95 % of control | [3] 100 % of control | dose: 150.0 mg/kg/injection, schedule: Q01DX009 (ip), vehicle: saline 87 % of control | [4] 101 % of control | [5] 88 % of control

O=C1c2ccccc2C(=O)N1c1ccccc1O
inactive: dose: 100.0 mg/kg/injection, schedule: Q04DX002 (ip), vehicle: Klucel (hydroxypropylcellulose) (HPC) 98 % of control | dose: 200.0 mg/kg/injection, schedule: Q04DX002 (ip), vehicle: Klucel (hydroxypropylcellulose) (HPC) 102 % of control | dose: 400.0 mg/kg/injection, schedule: Q04DX002 (ip), vehicle: Klucel (hydroxypropylcellulose) (HPC) 106 % of control

CCN(CC)Cc1cc(Nc2nc(/C=C/c3ccc(Cl)cc3)nc(Cl)c2-c2ccc(Cl)cc2)ccc1O
inactive: dose: 12.0 mg/kg/injection, schedule: Q01DX001 (ip), vehicle: saline 100 % of control | dose: 12.5 mg/kg/injection, schedule: Q04DX003 (ip), vehicle: Klucel (hydroxypropylcellulose) (HPC) 95 % of control | dose: 25.0 mg/kg/injection, schedule: Q01DX001 (ip), vehicle: saline 107 % of control | dose: 25.0 mg/kg/injection, schedule: Q04DX003 (ip), vehicle: Klucel (hydroxypropylcellulose) (HPC) 98 % of control | dose: 50.0 mg/kg/injection, schedule: Q01DX001 (ip), vehicle: saline 100 % of control | dose: 50.0 mg/kg/injection, schedule: Q04DX003 (ip), vehicle: Klucel (hydroxypropylcellulose) (HPC) 97 % of control

COc1ccc(C(=S)N2CCN(c3ccc(C)cc3)CC2)cc1
inactive: [6] 98 % of control | [7] 95 % of control | dose: 400.0 mg/kg/injection, schedule: Q01DX001 (ip), vehicle: saline 95 % of control

COC(=O)/C(C#N)=N/O
inactive: dose: 50.0 mg/kg/injection, schedule: Q01DX009 (ip), vehicle: saline with Tween-80 102 % of control | [8] 97 % of control | [9] 100 % of control | [10] 94 % of control | [11] 94 % of control

O=[N+]([O-])c1ccc(Oc2ccc(S(=O)(=O)F)cc2)cc1
inactive: [2] 106 % of control | [4] 97 % of control | [12] 98 % of control

Cc1ccc([N+](=O)[O-])cc1NC(=O)NCCO
inactive: [3] 106 % of control | [5] 106 % of control | [13] 103 % of control

O=C(O)c1ccc(OC(F)(F)C(F)Cl)cc1 (stereo unspecified)
inactive: [1] 100 % of control | [2] 98 % of control

COC(=O)C(=[N+]=[N-])C(=O)OC
inactive: dose: 100.0 mg/kg/injection, schedule: Q01DX001 (ip), vehicle: Klucel (hydroxypropylcellulose) (HPC) 92 % of control | [2] 98 % of control | [14] 102 % of control | dose: 200.0 mg/kg/injection, schedule: Q01DX001 (ip), vehicle: Klucel (hydroxypropylcellulose) (HPC) 92 % of control | [4] 98 % of control | [15] 101 % of control | dose: 400.0 mg/kg/injection, schedule: Q01DX001 (ip), vehicle: Klucel (hydroxypropylcellulose) (HPC) 93 % of control | [12] 107 % of control | [16] 104 % of control

Cc1cccc(Cl)c1N=C=O
inactive: [6] 102 % of control | [7] 102 % of control

CCOC(=O)c1ccc(NC(=O)N2CCCCC2C)cc1 (stereo unspecified)
inactive: dose: 100.0 mg/kg/injection, schedule: Q01DX001 (ip), vehicle: saline with Tween-80 93 % of control | [8] 104 % of control | dose: 100.0 mg/kg/injection, schedule: Q04DX002 (ip), vehicle: saline with Tween-80 97 % of control and 99 % of control | [9] 88 % of control | dose: 200.0 mg/kg/injection, schedule: Q01DX001 (ip), vehicle: saline with Tween-80 89 % of control | [10] 104 % of control | dose: 200.0 mg/kg/injection, schedule: Q04DX002 (ip), vehicle: saline with Tween-80 92 % of control and 100 % of control | [11] 96 % of control | dose: 400.0 mg/kg/injection, schedule: Q01DX001 (ip), vehicle: saline with Tween-80 91 % of control | dose: 400.0 mg/kg/injection, schedule: Q01DX009 (ip), vehicle: saline with Tween-80 97 % of control | dose: 400.0 mg/kg/injection, schedule: Q04DX002 (ip), vehicle: saline with Tween-80 94 % of control and 99 % of control | [17] 96 % of control

C=CCc1c(F)c(F)c(F)c(F)c1F
inactive: [9] 97 % of control | [11] 95 % of control | [17] 98 % of control

O=C1CCC(OC(=O)c2ccccc2)CC1
inactive: [2] 97 % of control | [14] 101 % of control | [4] 95 % of control | [15] 101 % of control | [12] 100 % of control | [16] 90 % of control

O=C(O)C(CCc1ccccc1)N1CCOCC1 (stereo unspecified)
inactive: [18] 100 % of control | [19] 101 % of control | [20] 103 % of control

ClCc1ccncc1
inactive: [18] 87 % of control | [3] 109 % of control | [19] 95 % of control | [5] 98 % of control | [13] 98 % of control

O=c1[nH][nH]c(-c2ccccc2)c1Cc1ccccc1
inactive: [3] 95 % of control | [5] 96 % of control | [13] 96 % of control

CCC(C1=NC(C)(C)CO1)c1ccccc1Br (stereo unspecified)
inactive: [3] 97 % of control | [5] 98 % of control | [13] 88 % of control

CNC(=O)Oc1cc2ccccc2cc1C(=O)Nc1cc(OC)ccc1OC
inactive: dose: 25.0 mg/kg/injection, schedule: Q01DX009 (ip), vehicle: Klucel (hydroxypropylcellulose) (HPC) 94 % of control | [1] 101 % of control | [2] 94 % of control | [4] 95 % of control

N#Cc1ccccc1OCCCOc1ccccc1C#N
inactive: dose: 75.0 mg/kg/injection, schedule: Q01DX009 (ip), vehicle: Klucel (hydroxypropylcellulose) (HPC) 100 % of control | dose: 150.0 mg/kg/injection, schedule: Q01DX009 (ip), vehicle: Klucel (hydroxypropylcellulose) (HPC) 99 % of control | dose: 300.0 mg/kg/injection, schedule: Q01DX009 (ip), vehicle: Klucel (hydroxypropylcellulose) (HPC) 106 % of control

CNc1ccccc1Cc1ccccc1
inactive: [2] 96 % of control | [14] 103 % of control | [4] 99 % of control | [15] 93 % of control | [16] 98 % of control

c1ccc2c(c1)CNC2
inactive: [3] 104 % of control | [19] 94 % of control | [5] 106 % of control | [20] 92 % of control | [13] 97 % of control
